According to US10167262B2, “Herbicidal substituted 3-arylpyrazoles” (FMC CORPORATION, priority 2014, dated 2019):

Tests used:
Assay type in all cases: in vivo
[1] = system: ducksalad (Heteranthera limosa); experiment: Test B flooded paddy test, plant response rating 0-100; conditions: Flood, 250 g ai/ha; scale 0 to 100 (0 no effect, 100 complete control); 13 to 15 days
Text: (§1) At time of treatment, test pots were flooded to 3 cm above the soil surface, treated by application of test compounds directly to the paddy water, and then maintained at that water depth for the duration of the test. Treated plants and controls were maintained in a greenhouse for 13 to 15 days, after which time all species were compared to controls and visually evaluated. […] A dash (-) response means no test result.

[2] = system: sedge, umbrella (small-flower umbrella sedge, Cyperus difformis); experiment: as above; conditions: Flood, 250 g ai/ha; scale 0 to 100 (0 no effect, 100 complete control); 13 to 15 days
Text: as §1

rice (Oryza sativa) = experiment: as above; conditions: Flood, 250 g ai/ha; scale 0 to 100 (0 no effect, 100 complete control); 13 to 15 days
Text: as §1

[3] = system: barnyardgrass (Echinochloa crus-galli); experiment: as above; conditions: Flood, 250 g ai/ha; scale 0 to 100 (0 no effect, 100 complete control); 13 to 15 days
Text: as §1

[4] = system: pigweed (Amaranthus retroflexus); experiment: Test A pre-/postemergence greenhouse herbicide test, visual injury rating 0-100
Method in brief: (§2)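 Planting in a loam and sand mixture preceded a directed preemergence soil spray; postemergence spray was applied concurrently to one- to two-leaf plants. After roughly 10 days under glass, injury is scored visually against untreated controls, 0–100.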

[5] = system: giant foxtail (Setaria faberii); experiment: as above
Method in brief: as §2

[6] = system: wheat (Triticum aestivum); experiment: as above
Method in brief: as §2

corn (Zea mays) = experiment: as above
Method in brief: as §2

[7] = system: barnyardgrass (Echinochloa crus-galli); experiment: as above
Method in brief: as §2

[8] = system: velvetleaf (Abutilon theophrasti); experiment: as above
Method in brief: as §2

[9] = system: morningglory (Ipomoea spp.); experiment: as above
Method in brief: as §2

[10] = system: large (Lg) crabgrass (Digitaria sanguinalis); experiment: as above
Method in brief: as §2

Row | SMILES | Plant response rating, Ducksalad [1] | Plant response rating, Sedge, Umbrella [2] | Plant response rating, Rice (rice (Oryza sativa)) | Plant response rating, Barnyardgrass [3] | Plant response rating (0 to 100 scale), Pigweed ([4]; Postemergence, 125 g ai/ha) | Plant response rating (0 to 100 scale), Pigweed ([4]; Postemergence, 500 g ai/ha) | Pigweed plant response rating (0 = no effect, 100 = complete control) ([4]; Preemergence, 125 g ai/ha) | Plant response rating (0 to 100 scale), Pigweed ([4]; Preemergence, 500 g ai/ha) | Plant response rating (0 to 100 scale), Foxtail, Giant ([5]; Postemergence, 125 g ai/ha) | Plant response rating (0 to 100 scale), Foxtail, Giant ([5]; Postemergence, 500 g ai/ha) | Foxtail, Giant plant response rating (0 = no effect, 100 = complete control) ([5]; Preemergence, 125 g ai/ha) | Plant response rating (0 to 100 scale), Foxtail, Giant ([5]; Preemergence, 500 g ai/ha) | Plant response rating (0 to 100 scale), Wheat ([6]; Postemergence, 125 g ai/ha) | Plant response rating (0 to 100 scale), Wheat ([6]; Postemergence, 500 g ai/ha) | Wheat plant response rating (0 = no effect, 100 = complete control) ([6]; Preemergence, 125 g ai/ha) | Plant response rating (0 to 100 scale), Wheat ([6]; Preemergence, 500 g ai/ha) | Corn plant response rating (0 = no effect, 100 = complete control) (corn (Zea mays); Preemergence, 125 g ai/ha) | Plant response rating (0 to 100 scale), Corn (corn (Zea mays); Preemergence, 500 g ai/ha) | Plant response rating (0 to 100 scale), Barnyardgrass ([7]; Postemergence, 125 g ai/ha) | Plant response rating (0 to 100 scale), Barnyardgrass ([7]; Postemergence, 500 g ai/ha) | other results
1 | ON=C(c1cccnc1)c1c[nH]nc1-c1cc(Cl)cc(Cl)c1 [Compound 5] | 0 | 0 | 0 | 0 | 0 | 0 | 0 | 20 | 0 | 0 | 0 | 0 | 0 | 0 | 0 | 0 | 0 | 0 | 0 | 0 | Barnyardgrass plant response rating (0 = no effect, 100 = complete control) ([7]; Preemergence, 125 g ai/ha): 0; Plant response rating (0 to 100 scale), Barnyardgrass ([7]; Preemergence, 500 g ai/ha): 0; Plant response rating (0 to 100 scale), Velvetleaf ([8]; Postemergence, 125 g ai/ha): 0; Plant response rating (0 to 100 scale), Velvetleaf ([8]; Postemergence, 500 g ai/ha): 0; Velvetleaf plant response rating (0 = no effect, 100 = complete control) ([8]; Preemergence, 125 g ai/ha): 0; Plant response rating (0 to 100 scale), Velvetleaf ([8]; Preemergence, 500 g ai/ha): 0; Plant response rating (0 to 100 scale), Morningglory ([9]; Postemergence, 125 g ai/ha): 0; Plant response rating (0 to 100 scale), Morningglory ([9]; Postemergence, 500 g ai/ha): 0; Morningglory plant response rating (0 = no effect, 100 = complete control) ([9]; Preemergence, 125 g ai/ha): 0; Plant response rating (0 to 100 scale), Morningglory ([9]; Preemergence, 500 g ai/ha): 0; Plant response rating (0 to 100 scale), Crabgrass, Large ([10]; Postemergence, 125 g ai/ha): 0; Plant response rating (0 to 100 scale), Crabgrass, Large ([10]; Postemergence, 500 g ai/ha): 0; Crabgrass, Large plant response rating (0 = no effect, 100 = complete control) ([10]; Preemergence, 125 g ai/ha): 0; Plant response rating (0 to 100 scale), Crabgrass, Large ([10]; Preemergence, 500 g ai/ha): 0
2 | Cn1cc(C(=O)c2cccnc2)c(-c2cc(Cl)cc(Cl)c2)n1 [Compound 6] | 0 | 0 | 0 | 0 | 0 | 30 | 0 | 20 | 0 | 0 | 0 | 0 | 0 | 0 | 0 | 0 | 0 | 0 | 0 | 0 | Plant response rating (0 to 100 scale), Corn (corn (Zea mays); Postemergence, 125 g ai/ha): 0; Plant response rating (0 to 100 scale), Corn (corn (Zea mays); Postemergence, 500 g ai/ha): 0; Barnyardgrass plant response rating (0 = no effect, 100 = complete control) ([7]; Preemergence, 125 g ai/ha): 0; Plant response rating (0 to 100 scale), Barnyardgrass ([7]; Preemergence, 500 g ai/ha): 0; Plant response rating (0 to 100 scale), Velvetleaf ([8]; Postemergence, 125 g ai/ha): 10; Plant response rating (0 to 100 scale), Velvetleaf ([8]; Postemergence, 500 g ai/ha): 10; Velvetleaf plant response rating (0 = no effect, 100 = complete control) ([8]; Preemergence, 125 g ai/ha): 0; Plant response rating (0 to 100 scale), Velvetleaf ([8]; Preemergence, 500 g ai/ha): 20; Plant response rating (0 to 100 scale), Morningglory ([9]; Postemergence, 125 g ai/ha): 0; Plant response rating (0 to 100 scale), Morningglory ([9]; Postemergence, 500 g ai/ha): 0; Morningglory plant response rating (0 = no effect, 100 = complete control) ([9]; Preemergence, 125 g ai/ha): 0; Plant response rating (0 to 100 scale), Morningglory ([9]; Preemergence, 500 g ai/ha): 0; Plant response rating (0 to 100 scale), Crabgrass, Large ([10]; Postemergence, 125 g ai/ha): 0; Plant response rating (0 to 100 scale), Crabgrass, Large ([10]; Postemergence, 500 g ai/ha): 0; Crabgrass, Large plant response rating (0 = no effect, 100 = complete control) ([10]; Preemergence, 125 g ai/ha): 0; Plant response rating (0 to 100 scale), Crabgrass, Large ([10]; Preemergence, 500 g ai/ha): 0
3 | CCn1cc(C(=O)c2cccnc2)c(-c2cc(Cl)cc(Cl)c2)n1 [Compound 7] | 0 | 0 | 0 | 0 | 40 | 70 | 20 | 60 | 0 | 0 | 0 | 0 | 0 | 0 | 0 | 0 | 0 | 0 | 0 | 0 | Plant response rating (0 to 100 scale), Corn (corn (Zea mays); Postemergence, 125 g ai/ha): 0; Plant response rating (0 to 100 scale), Corn (corn (Zea mays); Postemergence, 500 g ai/ha): 0; Barnyardgrass plant response rating (0 = no effect, 100 = complete control) ([7]; Preemergence, 125 g ai/ha): 0; Plant response rating (0 to 100 scale), Barnyardgrass ([7]; Preemergence, 500 g ai/ha): 0; Plant response rating (0 to 100 scale), Velvetleaf ([8]; Postemergence, 125 g ai/ha): 50; Plant response rating (0 to 100 scale), Velvetleaf ([8]; Postemergence, 500 g ai/ha): 70; Velvetleaf plant response rating (0 = no effect, 100 = complete control) ([8]; Preemergence, 125 g ai/ha): 0; Plant response rating (0 to 100 scale), Velvetleaf ([8]; Preemergence, 500 g ai/ha): 50; Plant response rating (0 to 100 scale), Morningglory ([9]; Postemergence, 125 g ai/ha): 0; Plant response rating (0 to 100 scale), Morningglory ([9]; Postemergence, 500 g ai/ha): 0; Morningglory plant response rating (0 = no effect, 100 = complete control) ([9]; Preemergence, 125 g ai/ha): 0; Plant response rating (0 to 100 scale), Morningglory ([9]; Preemergence, 500 g ai/ha): 0; Plant response rating (0 to 100 scale), Crabgrass, Large ([10]; Postemergence, 125 g ai/ha): 0; Plant response rating (0 to 100 scale), Crabgrass, Large ([10]; Postemergence, 500 g ai/ha): 0; Crabgrass, Large plant response rating (0 = no effect, 100 = complete control) ([10]; Preemergence, 125 g ai/ha): 0; Plant response rating (0 to 100 scale), Crabgrass, Large ([10]; Preemergence, 500 g ai/ha): 0
4 | C=CCn1cc(C(=O)c2cccnc2)c(-c2cc(Cl)cc(Cl)c2)n1 [Compound 8] | 0 | 0 | 0 | 0 | 30 | 60 | 0 | 50 | 0 | 0 | 0 | 0 | 0 | 0 | 0 | 0 | 0 | 0 | 0 | 0 | Plant response rating (0 to 100 scale), Corn (corn (Zea mays); Postemergence, 125 g ai/ha): 0; Plant response rating (0 to 100 scale), Corn (corn (Zea mays); Postemergence, 500 g ai/ha): 0; Barnyardgrass plant response rating (0 = no effect, 100 = complete control) ([7]; Preemergence, 125 g ai/ha): 0; Plant response rating (0 to 100 scale), Barnyardgrass ([7]; Preemergence, 500 g ai/ha): 0; Plant response rating (0 to 100 scale), Velvetleaf ([8]; Postemergence, 125 g ai/ha): 10; Plant response rating (0 to 100 scale), Velvetleaf ([8]; Postemergence, 500 g ai/ha): 30; Velvetleaf plant response rating (0 = no effect, 100 = complete control) ([8]; Preemergence, 125 g ai/ha): 0; Plant response rating (0 to 100 scale), Velvetleaf ([8]; Preemergence, 500 g ai/ha): 0; Plant response rating (0 to 100 scale), Morningglory ([9]; Postemergence, 125 g ai/ha): 0; Plant response rating (0 to 100 scale), Morningglory ([9]; Postemergence, 500 g ai/ha): 0; Morningglory plant response rating (0 = no effect, 100 = complete control) ([9]; Preemergence, 125 g ai/ha): 0; Plant response rating (0 to 100 scale), Morningglory ([9]; Preemergence, 500 g ai/ha): 0; Plant response rating (0 to 100 scale), Crabgrass, Large ([10]; Postemergence, 125 g ai/ha): 0; Plant response rating (0 to 100 scale), Crabgrass, Large ([10]; Postemergence, 500 g ai/ha): 0; Crabgrass, Large plant response rating (0 = no effect, 100 = complete control) ([10]; Preemergence, 125 g ai/ha): 0; Plant response rating (0 to 100 scale), Crabgrass, Large ([10]; Preemergence, 500 g ai/ha): 0
5 | C#CCn1cc(C(=O)c2cccnc2)c(-c2cc(Cl)cc(Cl)c2)n1 [Compound 9] | 0 | 0 | 0 | 0 | 60 | 80 | 60 | 90 | 0 | 0 | 0 | 20 | 0 | 0 | 0 | 0 | 0 | 0 | 0 | 10 | Barnyardgrass plant response rating (0 = no effect, 100 = complete control) ([7]; Preemergence, 125 g ai/ha): 0; Plant response rating (0 to 100 scale), Barnyardgrass ([7]; Preemergence, 500 g ai/ha): 0; Plant response rating (0 to 100 scale), Velvetleaf ([8]; Postemergence, 125 g ai/ha): 50; Plant response rating (0 to 100 scale), Velvetleaf ([8]; Postemergence, 500 g ai/ha): 60; Velvetleaf plant response rating (0 = no effect, 100 = complete control) ([8]; Preemergence, 125 g ai/ha): 0; Plant response rating (0 to 100 scale), Velvetleaf ([8]; Preemergence, 500 g ai/ha): 80; Plant response rating (0 to 100 scale), Morningglory ([9]; Postemergence, 125 g ai/ha): 0; Plant response rating (0 to 100 scale), Morningglory ([9]; Postemergence, 500 g ai/ha): 0; Morningglory plant response rating (0 = no effect, 100 = complete control) ([9]; Preemergence, 125 g ai/ha): 0; Plant response rating (0 to 100 scale), Morningglory ([9]; Preemergence, 500 g ai/ha): 0; Plant response rating (0 to 100 scale), Crabgrass, Large ([10]; Postemergence, 125 g ai/ha): 0; Plant response rating (0 to 100 scale), Crabgrass, Large ([10]; Postemergence, 500 g ai/ha): 0; Crabgrass, Large plant response rating (0 = no effect, 100 = complete control) ([10]; Preemergence, 125 g ai/ha): 0; Plant response rating (0 to 100 scale), Crabgrass, Large ([10]; Preemergence, 500 g ai/ha): 10
